Source: patent US20240287029A1, “SULFONAMIDES, METHOD FOR PREPARATION THEREOF, AND USE THEREOF” (CHENGDU SHIBEIKANG BIOMEDICAL TECHNOLOGY CO., LTD., priority 2021, published 2024)
Marks after values point to notes of the source that are not given here.

Experiments:
[1] = test system: ammonia-induced coughs in mice; assay: Mouse coughing test (concentrated ammonia induced cough); type: in vivo; details: KM mice, 30 mg/kg intragastric; for Number of coughs: 30 min after administration; for Number of coughs / Number of coughs 60 min / Number of coughs 120 min: coughs within 3 min, group mean; for Number of coughs 60 min: 60 min after administration; for Number of coughs 120 min: 120 min after administration; for duration of cough-relieving action compared to Comparative Compound 1: 60 and 120 min
Description: Healthy adult KM mice, half male and half female, 6 mice in each group, each weighing about 28-30 g.
Most of the animal coughing models reported in the literature use mechanical, chemical and electrical stimulation to stimulate the animal's nerves and receptors to trigger coughing. Based on the characteristics of the candidate compounds and the existing similar target compounds as a reference, the concentrated ammonia induction method was preliminarily selected to establish a coughing model in mice.
Preparation of 50% aqueous ammonia solution: 2.5 ml aqueous ammonia was dissolved in a 5 ml injection solution of 0.9% sodium chloride, and mixed well.
Preparation of solutions of the positive control and Comparative Compound 1: each of 9 mg positive control and 9 mg Comparative Compound 1 was weighed and dissolved in a 3 ml solution of 0.5% CMC-Na, and fully mixed, to obtain a 3 mg/ml solution.
Preparation of solutions of the compounds of Examples: 9 mg of the compound of each Example was dissolved in a 3 ml solution of 0.5% CMC-Na, and mixed thoroughly, to obtain a 3 mg/ml solution.
Grouping: Comparative Example 1 group, Positive control group, Example group, Model group. Six KM mice in each group were intragastrically given Comparative Compound 1 (30 mg/kg), the positive control (Gefapixant, purchased, 30 mg/kg), and an Example compound (30 mg/kg), and the model group was given an equal volume of 0.5% CMC-Na solution. 30 min, 60 min, or 120 min after administration, each mouse was placed in a 500 ml beaker, and a cotton ball (weight: 100±5 mg) containing 0.3 ml 50% aqueous ammonia was placed in the beaker. The number of typical coughs by the mouse within 3 min was observed (typical cough: contraction of the abdominal muscle or contraction of the chest, accompanied by wide opening of the mouth and a coughing sound).
• (1) Cough judgment criteria: Cough was judged by contraction of the abdominal muscle or contraction of the chest, accompanied by wide opening of the mouth and a coughing sound. • (2) The number of coughs by the mice within 3 min was recorded with a stop watch, and statistically analyzed with software. The data of each group were statistically expressed in mean±standard deviation, and one-way ANOVA between multiple groups was performed, P<0.05 for statistically significant difference.

human P2X3 receptor = molecular target: T1, human P2X3 receptor (Homo sapiens, UniProt P56373); assay: In vitro biological activity evaluation, P2X3 antagonist mode FLIPR assay with BZATP agonist
T1 sequence (P56373 1-397): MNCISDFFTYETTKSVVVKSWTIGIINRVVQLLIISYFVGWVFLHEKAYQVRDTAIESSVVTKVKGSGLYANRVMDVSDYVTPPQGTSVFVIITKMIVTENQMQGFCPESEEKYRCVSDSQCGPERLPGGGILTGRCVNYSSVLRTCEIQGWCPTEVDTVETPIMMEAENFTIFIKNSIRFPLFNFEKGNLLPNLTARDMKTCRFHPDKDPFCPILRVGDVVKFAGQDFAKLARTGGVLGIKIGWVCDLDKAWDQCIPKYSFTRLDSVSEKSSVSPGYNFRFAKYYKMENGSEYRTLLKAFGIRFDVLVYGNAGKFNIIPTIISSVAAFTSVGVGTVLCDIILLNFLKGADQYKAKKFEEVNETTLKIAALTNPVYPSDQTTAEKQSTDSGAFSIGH
Description: A HEK293 cell line stably transfected with human P2X3 receptor was used.

sense of taste of rats = assay: Taste disorder test (quinine water / tap water two-bottle drinking); type: in vivo, SD rats; details: 10 mg/kg intravenous; for effect on the sense of taste: quinine water/tap water ratio vs solvent group, in words; for Quinine water/tap water (%): SD rats, drinking 0 to 15 min after administration, 0.3 mM quinine
Protocol: Preparation of 0.3 mM quinine solution: 119.20 mg quinine hydrochloride was weighed and dissolved in 1,000 ml tap water, and mixed well.
Preparation of test sample solution: 40 mg of the test sample was weighed and added to an appropriate amount of DMSO and dissolved, then a solution of solubilizer HS-15 was added thereto and mixed well, and 16 ml saline was added, to obtain a solution of 2.5 mg/ml.
Animals and grouping: male SD rats each about 160 to 180 g, 10 rats per group, with similar average weight in each group, fed in separate cages.
Drinking habit training: the animals in each group were given normal drinking water for 30 minutes at 8:30 am and 4:30 pm every day, with water deprivation for the rest of the day, and trained for 5 days, wherein two bottles of water placed in the left and right positions respectively were renewed every day.
Administration: After water deprivation over the night before the experiment, on the next morning 4 mL/kg (10 mg/kg) of the test sample was injected intravenously in the tail vein of the rats in the test group, and 4 mL/kg (10 mg/kg) of 0.5% HS-15 was injected intravenously in the model group.
• (1) Drinking water measurement: after injection, the animals were put back to their original cages, and the measurement time of each group was in the window covering the Tmax of the drugs (the measurement time was from 0 min to 15 min after administration); in each cage a bottle of normal drinking water and a bottle of drinking water containing 0.3 mM quinine hydrochloride (Quinie) were placed, and the left and right positions of the two bottles in all cages were the same. The animals were allowed to drink freely for 15 min, and the volume of water consumed from the two bottles was measured separately, accurate to 0.1 ml. • (2) Statistical analysis of data: the volume of the consumed quinine bitter water and the volume of the consumed tap water were measured, the percentage of quinine water relative to tap water was calculated, and ANOVA was used to check whether there was a significant difference between the groups.

[2] = test system: refractory or unexplained chronic cough in adult patients; details: cited from earlier work

| SMILES | Number of coughs [1] | Number of coughs 60 min [1] | Number of coughs 120 min [1] | cough relieving effect 120 min after administration ([1]; vs model group, in words) | IC50 (human P2X3 receptor) | duration of cough-relieving action compared to Comparative Compound 1 ([1]; in words) | effect on the sense of taste (sense of taste of rats) | Quinine water/tap water (%) (sense of taste of rats) | primary endpoint ([2]; 15 mg twice daily) | 24-hour cough frequency ([2]; 45 mg twice daily, Week 12 (COUGH-1) and Week 24 (COUGH-2), compared with placebo) | discontinuation due to adverse events ([2]; 45-mg group) | taste-related adverse events ([2]; 45-mg group) |
| --- | --- | --- | --- | --- | --- | --- | --- | --- | --- | --- | --- | --- |
| C[C@@H](Cn1c(=O)nc(Nc2ccc(Oc3ccccn3)cc2)n(Cc2ccc(Cl)cc2)c1=O)C(=O)O [Comparative Example 1, reference compound] | 15.61** | 22.29** | 45.21 | did not have an obvious cough relieving effect | < 10 nM | – | – | – | – | – | – | – |
| C[C@@H](Cn1c(=O)nc(Nc2ccc(Oc3ccccn3)cc2)n(Cc2ccc(Cl)cc2)c1=O)C(=O)NS(C)(=O)=O [Example 1] | 13.33** | 18.37** | 17.28**^Δ | – | < 10 nM | significantly prolonged | almost no effect | 37.01%^Δ | – | – | – | – |
| CCS(=O)(=O)NC(=O)[C@@H](C)Cn1c(=O)nc(Nc2ccc(Oc3ccccn3)cc2)n(Cc2ccc(Cl)cc2)c1=O [Example 2] | 17.12** | – | – | – | < 10 nM | – | – | – | – | – | – | – |
| C[C@@H](Cn1c(=O)nc(Nc2ccc(Oc3ccccn3)cc2)n(Cc2ccc(Cl)cc2)c1=O)C(=O)NS(=O)(=O)N(C)C [Example 3] | 15.34** | 16.98** | 18.56**^Δ | – | < 10 nM | significantly prolonged | almost no effect | 38.11%^Δ | – | – | – | – |
| C[C@@H](Cn1c(=O)nc(Nc2ccc(Oc3ccccn3)cc2)n(Cc2ccc(Cl)cc2)c1=O)C(=O)NS(=O)(=O)C(F)(F)F [Example 4] | 28.61* | – | – | – | 10.1 to 100 nM | – | – | – | – | – | – | – |
| C[C@@H](Cn1c(=O)nc(Nc2ccc(Oc3ccccn3)cc2)n(Cc2ccc(Cl)cc2)c1=O)C(=O)NS(=O)(=O)N1CCCC1 [Example 5] | 12.85** | 16.25** | 23.11**^Δ | – | < 10 nM | significantly prolonged | – | – | – | – | – | – |
| CC(C)NS(=O)(=O)NC(=O)[C@@H](C)Cn1c(=O)nc(Nc2ccc(Oc3ccccn3)cc2)n(Cc2ccc(Cl)cc2)c1=O [Example 6] | 20.60** | 17.63** | 28.78*^Δ | – | < 10 nM | significantly prolonged | almost no effect | 41.54%^Δ | – | – | – | – |
| C[C@@H](Cn1c(=O)nc(Nc2ccc(Oc3ccccn3)cc2)n(Cc2ccc(Cl)cc2)c1=O)C(=O)NS(=O)(=O)c1ccccc1 [Example 7] | 28.66* | – | – | – | 10.1 to 100 nM | – | – | – | – | – | – | – |
| C[C@@H](Cn1c(=O)nc(Nc2ccc(Oc3ccc(OC(F)F)cn3)cc2)n(Cc2ccc(Cl)cc2)c1=O)C(=O)NS(=O)(=O)c1ccc(F)cc1 [Example 8, (S)-3-(3-(4-chlorobenzyl)-4-(4-(5-(5-(difluoromethoxy)pyridin-2-yl)oxyphenyl)amino)-2,6-dioxo-3,6-dihydro-1,3,5-triazin-1(2H)-yl)-N-(4-(4-fluorophenyl)sulfonyl)-2-methylpropionamide] | 29.83* | – | – | – | 10.1 to 100 nM | – | – | – | – | – | – | – |
| Cc1ccc(S(=O)(=O)NC(=O)[C@@H](C)Cn2c(=O)nc(Nc3ccc(Oc4ccccn4)cc3)n(Cc3ccc(Cl)cc3)c2=O)cc1 [Example 9] | 25.11* | – | – | – | 10.1 to 100 nM | – | – | – | – | – | – | – |
| CNS(=O)(=O)NC(=O)[C@@H](C)Cn1c(=O)nc(Nc2ccc(Oc3ccc(Cl)cn3)cc2)n(Cc2ccc(Cl)cc2)c1=O [Example 10] | 20.27** | 20.33** | 24.13**^Δ | – | < 10 nM | significantly prolonged | – | – | – | – | – | – |
| CC(C)(Cn1c(=O)nc(Nc2ccc(Oc3ccccn3)cc2)n(Cc2ccc(Cl)cc2)c1=O)C(=O)NS(C)(=O)=O [Example 11] | 17.62** | 16.68** | 18.90**^Δ | – | < 10 nM | significantly prolonged | almost no effect | 37.12%^Δ | – | – | – | – |
| CS(=O)(=O)NC(=O)C1(Cn2c(=O)nc(Nc3ccc(Oc4ccccn4)cc3)n(Cc3ccc(Cl)cc3)c2=O)CC1 [Example 12] | 19.39** | 20.17** | 24.14**^Δ | – | < 10 nM | significantly prolonged | almost no effect | 39.39%^Δ | – | – | – | – |
| COc1cc(C(C)C)c(Oc2cnc(N)nc2N)cc1S(N)(=O)=O [Positive control, Gefapixant] | 20.51** | – | – | – | – | – | – | 79.01%** | did not meet the primary endpoint | statistically significant reduction | higher frequency | higher incidence |
